Laboratory results taken from patent US7297353B2, “Use of anemonin for treating aseptic inflammations” (priority 2000, dated 2007).

Columns and labels:
pain induced by formalin = test: Analgesic test with formalin; assay type: in vivo, mice; conditions: 25 mg/kg intraperitoneal
Protocol: Dolantin was intraperitoneal injected and other groups received test medication on left and right hind feet. 15 minutes after administration, 0.03 ml of 2.5% formalin was given to each mouse by subcutaneous injection on right hind foot and then the test medication was applied again. Then, the number of times of each mouse's licking its right hind foot in 15 minutes was counted.

[1] = test system: pain induced by hot plate; test: Analgesic test with hot plate; assay type: in vivo, mice; conditions: 25 mg/kg intraperitoneal
Protocol: This experiment included 4 groups of female mice, totaling 64 and each weighed 18-22 g, selected for normal pain reaction with 55° C. hot plate: high concentration group, low concentration group, dolantin group and control group. The route of administration and dosage are the same as described in the test with formalin. Dolantin was intraperitoneal injected and other groups received test medication on left and right hind feet and abdomen. 30, 60 and 90 minutes after the administration, the mice were put on a 55° C. hot plate and the latent time of each mouse for pain reaction was determined.

[2] = test system: dimethylbenene-induced ear swelling; test: Acute ear edema of mice induced by dimethylbenene; assay type: in vivo; conditions: positive control applied on ear; two hours after dimethylbenene
Protocol: The mice were randomly divided into 5 groups. Thirty minutes and sixty minutes after applying dimethylbenene (50 μl) to the anterior and posterior surfaces of the right ear, 25% ethanol (50 μl), the linimene solutions of anemonin (0.05, 0.5, 5 mg/ml, 50 μl) and FAA (a positive control) were applied on the same ears of mice respectively. The left ear was considered as control. Two hours after dimethylbenene application, mice were killed and both ears were removed. Circular sections were taken, using a 9 mm-diameter borer, and weighed. The increase in weight caused by the irritant was measured by subtracting the weight of the untreated left ear section from that of the treated right ear section.

[3] = test system: carrageenan-induced paw edema; test: Acute hind paw edema of rats induced by carrageenan; assay type: in vivo; conditions: for Paw edema: FAA group
Protocol: The animals were injected subcutaneously with carrageenan (10 μl of 1% solution in saline) into the right paw. Anti-inflammatory properties of external anemonin were studied by applying with various liniment solution of anemonin (0.125, 0.5, 2 mg/ml, 0.5 ml) for 2 h immediately after administration of carrageenan. The rats of control group were treated with the same volume of solvent (25% ethanol). The paw volumes of rats were measured at 0, 2 h, 3 h, 4 h, 5 h, 6 h after injection of carrageenan. The paw edema was represented by subtracting the volume of the untreated same paw from that of the treated paw.

[4] = test system: swelling of rat's hind foot; test: Anti-swelling test on rat's hind foot (carrageenan); assay type: in vivo, rats; conditions: 0.025% ointment
Protocol: This experiment included 4 groups of rats totaling 40 and each weighed 200-250 g: high concentration group, low concentration group (12.5 mg/25 ml, 6.25 mg/25 ml respectively), fluocinolone acetonide group, control group (the same volume of 25% ethanol). Fluocinolone acetonide was given using a 0.025% ointment, and other groups received corresponding medicament on the left and right hind feet prior to subcutaneous injection of 0.1 ml of 1% carrageenan on the metatarsus of each rat's right hind foot. Immediately after the administration of carrageenan, corresponding medicament was applied on the right hind foot. The metatarsal perimeters of right and left hind foot of each rat were measured 2, 3, 4, and 5 hours after the final administration. The difference between the metatarsal perimeters of the two feet of each rat is taken as a measure of swelling. Corresponding medicament was applied again on rat's right hind foot after each measurement.

skin = test: Skin allergic test; conditions: guinea pigs

SMILES: CCOC(=O)C1(c2ccccc2)CCN(C)CC1 [Dolantin]
- Rate of inhibition(%) (pain induced by formalin): 100%
- Times of licking hind feet (pain induced by formalin; 15 minutes): 0.00 ± 0.00
- Increase of pain threshold (%) ([1]; 30 min after administration): 66%
- Latent time for pain reaction ([1]; 30 min after administration): 49.86 ± 5.23 s
- Increase of pain threshold (%) ([1]; 60 min after administration): 80%
- Latent time for pain reaction ([1]; 60 min after administration): 54.29 ± 9.27 s
- Increase of pain threshold (%) ([1]; 90 min after administration): 94%
- Latent time for pain reaction ([1]; 90 min after administration): 58.31 ± 11.23 s

SMILES: CC(=O)OCC(=O)[C@@]12OC(C)(C)O[C@@H]1C[C@H]1[C@@H]3C[C@H](F)C4=CC(=O)C=C[C@]4(C)[C@@]3(F)[C@@H](O)C[C@@]12C [FAA, Fluocinoloni Acetonidi Acetas, reference compound]
- Ear swellin [2]: 10 ± 1.8 mg
- Paw edema ([3]; 2 h): 0.13 ± 0.05 mL
- Paw edema ([3]; 3 h): 0.09 ± 0.07 mL
- Paw edema ([3]; 4 h): 0.11 ± 0.08 mL
- Paw edema ([3]; 5 h): 0.09 ± 0.07 mL
- Paw edema ([3]; 6 h): 0.09 ± 0.11 mL
- edema formation ([3]; steroidal anti-inflammatory drug, positive control): significantly inhibited

SMILES: CC1(C)O[C@@H]2C[C@H]3[C@@H]4C[C@H](F)C5=CC(=O)C=C[C@]5(C)[C@@]4(F)[C@@H](O)C[C@]3(C)[C@]2(C(=O)CO)O1 [Fluocinolone acetonide]
- Degree of tumefaction (cm) ([4]; 2 hours): 0.91 ± 0.20 cm
- Degree of tumefaction (cm) ([4]; 3 hours): 0.92 ± 0.13 cm
- Degree of tumefaction (cm) ([4]; 4 hours): 0.90 ± 0.18 cm
- Degree of tumefaction (cm) ([4]; 5 hours): 0.92 cm

SMILES: O=[N+]([O-])c1ccc(Cl)c([N+](=O)[O-])c1 [positive control, 2,4-dinitrochlorobenzene]
- allergenic intensity (skin): extreme
- allergenic rate (skin): 100%
